{
  "source": "patent US9084770B2",
  "about": "“Modulation of insulin like growth factor I receptor expression in cancer” (Antisense Therapeutics, Ltd., priority 2008, dated 2015)",
  "key": {"IGF-IR mRNA [1]": {"tested_on": "IGF-IR mRNA", "assay": "IGF-IR mRNA expression in transfected LNCaP and PC-3 cells, quantitative RT-PCR", "type": "cell-based, human", "conditions": "LNCaP and PC-3 cells, maximal doses tested", "method": "(§1) Established methods were used to test the activity of IGF-IR antisense oligonucleotide on LNCaP and PC-3 cell growth (crystal violet assay) and apoptosis (FACS). Dose- and sequence-specific suppression of IGF-IR mRNA and protein expression in ATL1101-treated LNCaP and PC3 PC cell lines in vitro were observed by QT-PCR and western blotting. Effects of the IGF-IR antisense oligonucleotide on various putative targets, including IGF-IR and downstream targets were evaluated using western blotting.\nFIGS. 1A(i)-1A(ii) show the sequence-specific and dose-dependent suppression of IGF-IR mRNA expression levels by ATL1101 in LNCaP (FIG. 1A (i)) and PC-3 (FIG. 1A (ii)) cells. […] One day after treatment, total RNA was extracted, and IGF-IR mRNA expression was analyzed by quantitative RT-PCR. IGF-IR mRNA levels were normalized to levels of GAPDH mRNA and expressed here as mean±SE. ***, p<0.001 differ from control (oligofectamine only) by Student's t test. “Control” cells were treated with oligofectamine only. In LNCaP cells, IGF-IR expression was >70% suppressed by 10 nM ATL1101 and >90% at 200 nM ATL1101. In PC3 cells, IGF-IR expression was suppressed ˜40% at 10 nM ATL1101, >50% at 50 nM ATL1101 and ˜80% at 200 nM. Control oligodeoxynucleotide (ISIS 306064) did suppress IGF-IR mRNA expression but by less than 25% at maximal doses tested"}, "LNCaP cells [2]": {"tested_on": "LNCaP cells", "assay": "LNCaP cell viability, crystal violet assay", "type": "cell-based, human", "conditions": "three days after treatment", "method": "as §1\n(§2) Cells were transfected with indicated concentrations of ATL1101, control oligodeoxynucleotides or oligofectamine as in FIGS. 1A(i)-1A(ii). Three days after treatment, cell viability was determined by crystal violet assay. Viable cell density was normalized to that of cells treated with oligofectamine. Points, means of triplicate analysis; bars, SE. *, p<0.05 differs from control oligodeoxynucleotide treatment group. **, p<0.01 differs from control oligodeoxynucleotide treatment group by Student's t test."}, "PC3 cells [3]": {"tested_on": "PC3 cells", "assay": "PC3 cell viability, crystal violet assay", "type": "cell-based, human", "conditions": "three days after treatment", "method": "as §1, §2"}, "[4]": {"tested_on": "IGF-IRβ, p-AKT, p-ERK1/2, cleaved PARP", "assay": "Intracellular signaling in LNCaP and PC3 cells, immunoblot", "type": "cell-based, human", "conditions": "100 nM", "method": "The suppression of intracellular signaling in IGF-IR antisense oligonucleotide-treated LNCaP (FIG. 3A) and PC3 (FIG. 3B) in vitro is shown in FIGS. 3A-3B. LNCaP or PC3 cells were transfected with 100 nM ATL1101 or control oligodeoxynucleotide (ISIS 306064) for two days. Cells were then cultured in FBS media for one day and in serum-free media for one day. Whole cell lysates (30 μg) were subjected to SDS-PAGE and immunoblotted to assess IGF-IRβ, p-AKT, total AKT, p-ERK1/2, total ERK1/2, cleaved PARP, and vinculin protein levels. Oligo, oligofectamine treated cells only."}, "LNCaP cells [5]": {"tested_on": "LNCaP cells", "assay": "LNCaP cell cycle and apoptosis, flow cytometry with propidium iodide", "type": "cell-based, human", "conditions": "100 nM", "method": "as §1\n(§3) The Effect of IGF-IR silencing with IGF-IR antisense oligonucleotide (ATL1101) on LNCaP and PC3 cell apoptosis and cell cycle is shown in FIGS. 4A(i)-(ii), 4B, 4C(i)-(ii), and Table 2. Cells were transfected with indicated concentrations of ATL1101, control oligodeoxynucleotide or oligofectamine as in FIGS. 1A(i)-1B(ii). Two days after treatment, cell cycle analysis was determined by flow cytometry using propidium iodide staining. […] In FIGS. 4C(i)-(ii), LNCaP (FIG. 4C (i)) or PC-3 (FIG. 4C (ii)) cells were transfected with indicated concentration of ATL1101 or control oligodeoxynucleotide (ISIS 306064) for two days. Cells were then cultured in FBS media for one day and in serum-free media for one day. Whole cell lysates (30 μg) were subjected to SDS-PAGE and immunoblotted to assess Cyclin D1, Cyclin E, p-RB, total Rb, and p27 protein levels. Oligo, oligofectamine treated cells only."}, "PC3 cells [6]": {"tested_on": "PC3 cells", "assay": "PC3 cell cycle and apoptosis, flow cytometry with propidium iodide", "type": "cell-based, human", "conditions": "PC3, FBS condition, 200 nM", "method": "as §1, §3"}, "PC3 tumors": {"tested_on": "PC3 tumors", "assay": "PC-3 xenograft with Paclitaxel, mean tumor volume", "type": "in vivo, mice", "conditions": "15 mg/kg i.p. oligonucleotide plus Paclitaxel", "from_the_text": "In vivo treatments in a PC-3 xenograft model were done substantially as described by Zellweger et al., 2001. PC3 cells (2×10^6 cells) were xenografted by subcutaneous injection into recipient 6-8 week-old athymic nude (nu/nu) mice. When tumors reached 200 mm^3, mice were randomly assigned to one of two arms for treatment with 2′-MOE-modified IGF-IR antisense oligonucleotide (ATL1101) plus Paclitaxel, or mismatch control oligodeoxynucleotide ISIS 306064 plus Paclitaxel. Each experimental group consisted of 10 mice. After randomization, 15 mg/kg of ATL1101 antisense oligonucleotide or mismatch control oligonucleotide were injected intraperitoneal (i.p.) into each mouse once daily for the first 5 days and 3 times a week (every other day) thereafter for 7 weeks. On days 7, 9, 11, and on days 21, 23, and 25, 0.5 mg of polymeric micellar Paclitaxel was administered once daily by i.v. injection. Mean Tumor volume was measured once weekly for 8 weeks and calculated by the formula length×width×depth×0.5236.\nIn PC3 mice, after 5 weeks of treatment, mean tumor size in mice treated with Paclitaxel and mismatch control oligodeoxynucleotide was 326+/−40.9 mm^3 compared with 175+/−20.1 mm^3 in mice treated with Paclitaxel and ATL1101, or 53.7% of control (p<0.01). After 8 weeks of treatment, mean tumor size in mice treated with Paclitaxel and mismatch control oligodeoxynucleotide was 1417+/−222 mm^3 compared with 507+/−79.3 mm^3 in mice treated with Paclitaxel and ATL1101, or 35.8% of control (p<0.01)."}, "IGF-IR mRNA [7]": {"tested_on": "IGF-IR mRNA", "assay": "IGF-IR mRNA in PC3 Ptx-R cells", "type": "cell-based, human", "conditions": "10 to 200 nM, compared to oligofectamine transfection reagent", "from_the_text": "(§4) The PC3 Ptx-R cells retain sensitivity to ATL1101-induced IGF-IR down regulation at the mRNA and protein level as shown in FIGS. 11A-C. […] ATL1101 and the control oligodeoxynucleotide ISIS 306064 had no effect on either of the alternative spliced isoform transcripts of the insulin receptor, IR-A, IR-B or IR-β protein or vinculin protein levels."}, "IGF-IRβ subunit protein": {"tested_on": "IGF-IRβ subunit protein", "assay": "IGF-IRβ subunit protein in PC3 Ptx-R cells", "type": "cell-based, human", "conditions": "10 to 200 nM, compared to oligofectamine transfection reagent", "from_the_text": "as §4"}, "[8]": {"tested_on": "insulin receptor IR-A, IR-B, IR-β protein", "assay": "Insulin receptor transcripts and protein in PC3 Ptx-R cells", "type": "cell-based, human", "from_the_text": "as §4"}, "Ptx-R PC3 cells": {"tested_on": "Ptx-R PC3 cells", "assay": "Ptx-R PC3 viable cells after transfection with or without Paclitaxel", "type": "cell-based, human", "conditions": "100 nM Paclitaxel and 25 nM oligonucleotide", "method": "The number of viable PC3 and PtxR PC3 cells was determined 72 hours after the second transfection.\n[…] The number of viable cells remaining was determined 72 hours after the second transfection treatment. ATL1101 treatment enhances the Ptx-R sensitivity to Paclitaxel under standard culture conditions. For example, there was approximately 45% cell viability with 100 nM Paclitaxel and 25 nM control oligodeoxynucleotide whereas, only 25 nM Paclitaxel is needed in the presence of 25 nM ATL1101 to produce the same reduction in cell viability."}},
  "data": [
    {"substance": "ISIS 306064: 8 nucleotide mismatch control oligonucleotide; Negative Control ODN (CCAATGATAACAAACGCGGA; chemistry not given here) [reference compound]", "values": [
      {"measurement": "suppression of IGF-IR mRNA expression", "setting": "IGF-IR mRNA [1]", "result": "less than 25%"},
      {"measurement": "cytotoxic effect on cell viability", "setting": "LNCaP cells [2]", "result": "dose-dependent cytotoxic effect"},
      {"measurement": "cytotoxic effect on cell viability", "setting": "PC3 cells [3]", "result": "dose-dependent cytotoxic effect"},
      {"measurement": "IGF-IR expression, down-stream kinase signaling and induction of PARP cleavage versus oligofectamine-treated cells", "setting": "[4]", "result": "indistinguishable"},
      {"measurement": "% of total cells, G0/G1", "setting": "LNCaP cells [5]; CSS condition", "result": 70.1, "unit": "%"},
      {"measurement": "% of total cells, G2/M", "setting": "LNCaP cells [5]; CSS condition", "result": 4.4, "unit": "%"},
      {"measurement": "% of total cells, S", "setting": "LNCaP cells [5]; CSS condition", "result": 3.8, "unit": "%"},
      {"measurement": "% of total cells, Sub G0/G1", "setting": "LNCaP cells [5]; CSS condition", "result": 21.7, "unit": "%"},
      {"measurement": "subG0/G1 + G0/G1:S + G2/M", "setting": "LNCaP cells [5]; CSS condition", "result": 11.2},
      {"measurement": "% of total cells, G0/G1", "setting": "LNCaP cells [5]; FBS condition", "result": 65.4, "unit": "%"},
      {"measurement": "% of total cells, G2/M", "setting": "LNCaP cells [5]; FBS condition", "result": 12.6, "unit": "%"},
      {"measurement": "% of total cells, S", "setting": "LNCaP cells [5]; FBS condition", "result": 11.2, "unit": "%"},
      {"measurement": "subG0/G1 + G0/G1:S + G2/M", "setting": "LNCaP cells [5]; FBS condition", "result": 3.2},
      {"measurement": "% of total cells, Sub G0/G1", "setting": "LNCaP cells [5]; FBS condition, two days after treatment", "result": 10.8, "unit": "%"},
      {"measurement": "% of total cells, G0/G1", "setting": "PC3 cells [6]", "result": 58.5, "unit": "%"},
      {"measurement": "% of total cells, G2/M", "setting": "PC3 cells [6]", "result": 18.2, "unit": "%"},
      {"measurement": "% of total cells, S", "setting": "PC3 cells [6]", "result": 13.7, "unit": "%"},
      {"measurement": "% of total cells, Sub G0/G1", "setting": "PC3 cells [6]", "result": 9.6, "unit": "%"},
      {"measurement": "subG0/G1 + G0/G1:S + G2/M", "setting": "PC3 cells [6]", "result": 2.1},
      {"measurement": "mean tumor size", "setting": "PC3 tumors; after 5 weeks of treatment", "result": "326+/−40.9 mm^3"},
      {"measurement": "mean tumor size", "setting": "PC3 tumors; after 8 weeks of treatment", "result": "1417+/−222 mm^3"},
      {"measurement": "IGF-IR mRNA levels", "setting": "IGF-IR mRNA [7]", "result": "no effect"},
      {"measurement": "IGF-IRβ subunit protein levels", "setting": "IGF-IRβ subunit protein", "result": "no effect"},
      {"measurement": "insulin receptor IR-A, IR-B transcripts or IR-β protein levels", "setting": "[8]", "result": "no effect"},
      {"measurement": "cell viability", "setting": "Ptx-R PC3 cells", "result": "approximately 45%"}
    ]}
  ]
}
